According to ChEMBL document CHEMBL5038591, “Identification of a Novel TAR RNA-Binding Protein 2 Modulator with Potential Therapeutic Activity against Hepatocellular Carcinoma” (J Med Chem, 2021):
Activity calls are given as the source filed them. No cut-off for these calls is given here.

Legend:
[1] = test system: HeLa; assay: Antiproliferative activity against human HeLa cells assessed as increase in miR-21 biogenesis level measured after 24 hrs by luciferase assay; type: functional, cell-based
[2] = test system: SK-HEP1; assay: Antiproliferative activity against human SK-HEP1 cells incubated for 24 hrs by alamar blue assay; type: functional, cell-based; conditions: SK-HEP1, 24 h
[3] = test system: HepG2; assay: Antiproliferative activity against human HepG2 cells incubated for 24 hrs by alamar blue assay; conditions: HepG2, 24 h
[4] = test system: HCT-116; assay: Antiproliferative activity against human HCT-116 cells incubated for 24 hrs by alamar blue assay; conditions: HCT-116, 24 h
[5] = test system: MHCC97; assay: Inhibition of colony formation in human MHCC97H cells at 30 uM incubated for 14 days by crystal violet staining based assay; type: functional, cell-based; conditions: time 14.0 day
[6] = test system: Huh-7; assay: Inhibition of colony formation in human Huh-7 cells at 30 uM incubated for 14 days by crystal violet staining based assay; type: functional, cell-based; conditions: time 14.0 day
[7] = test system: MDA-MB-231; assay: Inhibition of colony formation in human MDA-MB-231 cells at 30 uM incubated for 14 days by crystal violet staining based assay; type: functional, cell-based; conditions: time 14.0 day
[8] = test system: SK-HEP1; assay: Induction of apoptosis in human SK-HEP1 cells at 30 uM incubated for 24 hrs by Annexin V-FITC/PI staining based flow cytometry; type: functional, cell-based
[9] = test system: SK-HEP1; assay: Inhibition of cell migration in human SK-HEP1 cells at 30 uM incubated for 12 hrs by crystal violet staining based transwell assay; type: functional
[10] = test system: MHCC97; assay: Inhibition of cell migration in human MHCC97H cells at 30 uM incubated for 12 hrs by crystal violet staining based transwell assay; type: functional
[11] = test system: SK-HEP1; assay: Inhibition of epithelial-mesenchymal transition in human SK-HEP1 cells assessed as change in N-cadherin expression at 10 to 50 uM incubated for 24 hrs by Western blot analysis; type: functional, cell-based; conditions: dose 10-50 µM
[12] = test system: SK-HEP1; assay: Inhibition of epithelial-mesenchymal transition in human SK-HEP1 cells assessed as change in beta-catenin expression at 10 to 50 uM incubated for 24 hrs by Western blot analysis; type: functional, cell-based; conditions: dose 10-50 µM
[13] = test system: MHCC97; assay: Antitumor activity in human MHCC97 cells xenografted in SCID mouse assessed as suppression of tumor growth at 20 mg/kg, ip administered once every 3 day for 30 days by bioluminescence analysis; type: functional, organism-based; conditions: time 30.0 day
[14] = test system: MHCC97; assay: Antimetastatic activity against human MHCC97 cells xenografted in SCID mouse assessed as decrease in liver metastasis at 40 mg/kg, ip administered once every 3 days and measured after 10 days; type: functional, organism-based; conditions: time 10.0 day
[15] = Toxicity in SCID mouse xenografted with human MHCC97 cells assessed as increase in body weight at 40 mg/kg, ip administered once every 3 day for 30 days; type: organism-based; conditions: in vivo, 720 h, time 30 day
[16] = test system: MHCC97; assay: Antitumor activity in human MHCC97 cells xenografted in SCID mouse assessed as reduction in infiltration of inflammatory cells in left outer lobe of liver at 40 mg/kg, ip administered once every 3 days measured after 30 days by H and E staining based immunohistochemical analysis; type: functional, organism-based; conditions: time 30.0 day
[17] = test system: MHCC97; assay: Antitumor activity in human MHCC97 cells xenografted in SCID mouse assessed as reduction in infiltration of inflammatory cells in left middle lobe of liver at 40 mg/kg, ip measured after 30 days by H and E staining based immunohistochemical analysis; type: functional, organism-based; conditions: time 30.0 day
[18] = test system: SK-HEP1; assay: Effect on human SK-HEP1 cells assessed as decrease in miR-10b-5p level at 10 to 50 uM by qRT-PCR analysis; type: functional, cell-based; conditions: dose 10-50 µM
[19] = target: Serine/threonine-protein kinase AKT (Homo sapiens) (UniProt P31751+Q9Y243+P31749); assay: Inhibition of AKT phosphorylation in human SK-HEP1 cells at 30 uM by Western blot analysis; type: cell-based
Serine/threonine-protein kinase AKT (Homo sapiens), sequence (P31749 whole entry, looked up): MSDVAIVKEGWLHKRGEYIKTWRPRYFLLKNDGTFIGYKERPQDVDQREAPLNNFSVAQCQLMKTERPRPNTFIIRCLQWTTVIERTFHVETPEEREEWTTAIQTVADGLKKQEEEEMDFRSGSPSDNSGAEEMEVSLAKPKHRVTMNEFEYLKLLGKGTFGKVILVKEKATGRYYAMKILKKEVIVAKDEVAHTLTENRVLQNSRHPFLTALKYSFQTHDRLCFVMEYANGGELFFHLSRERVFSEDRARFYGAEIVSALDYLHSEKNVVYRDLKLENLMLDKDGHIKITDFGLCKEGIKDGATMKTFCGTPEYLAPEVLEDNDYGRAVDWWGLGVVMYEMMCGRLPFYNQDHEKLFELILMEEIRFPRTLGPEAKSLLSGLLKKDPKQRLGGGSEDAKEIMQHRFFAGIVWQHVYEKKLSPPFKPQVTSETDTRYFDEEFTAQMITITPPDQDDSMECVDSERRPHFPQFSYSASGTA
Serine/threonine-protein kinase AKT (Homo sapiens), sequence (P31751 whole entry, looked up): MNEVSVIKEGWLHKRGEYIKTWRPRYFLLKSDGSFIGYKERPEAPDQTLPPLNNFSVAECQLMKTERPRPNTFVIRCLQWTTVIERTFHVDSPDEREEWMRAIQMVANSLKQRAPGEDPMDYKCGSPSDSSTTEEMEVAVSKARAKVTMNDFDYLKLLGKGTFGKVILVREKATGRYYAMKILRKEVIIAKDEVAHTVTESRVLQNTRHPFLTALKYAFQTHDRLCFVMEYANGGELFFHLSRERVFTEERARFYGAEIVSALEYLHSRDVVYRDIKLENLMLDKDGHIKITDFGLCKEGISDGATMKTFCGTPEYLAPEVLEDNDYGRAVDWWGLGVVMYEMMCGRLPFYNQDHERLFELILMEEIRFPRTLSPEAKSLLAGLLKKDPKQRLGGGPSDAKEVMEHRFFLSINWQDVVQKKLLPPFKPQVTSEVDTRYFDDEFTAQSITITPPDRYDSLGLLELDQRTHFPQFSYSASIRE
Serine/threonine-protein kinase AKT (Homo sapiens), sequence (Q9Y243 whole entry, looked up): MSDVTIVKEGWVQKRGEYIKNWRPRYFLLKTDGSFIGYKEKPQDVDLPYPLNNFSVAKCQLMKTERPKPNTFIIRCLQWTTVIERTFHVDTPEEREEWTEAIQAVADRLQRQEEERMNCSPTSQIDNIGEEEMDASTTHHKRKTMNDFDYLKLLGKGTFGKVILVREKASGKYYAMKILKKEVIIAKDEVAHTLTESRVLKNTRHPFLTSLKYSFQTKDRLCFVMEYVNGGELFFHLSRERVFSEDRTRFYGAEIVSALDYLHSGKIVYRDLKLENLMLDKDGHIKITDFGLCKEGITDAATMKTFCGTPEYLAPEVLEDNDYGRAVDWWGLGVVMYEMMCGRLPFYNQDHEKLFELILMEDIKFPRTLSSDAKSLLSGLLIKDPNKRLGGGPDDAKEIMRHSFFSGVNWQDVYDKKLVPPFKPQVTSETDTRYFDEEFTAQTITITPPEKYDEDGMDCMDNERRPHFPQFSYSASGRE

[20] = target: T1, Signal transducer and activator of transcription 1-alpha/beta (Homo sapiens) (UniProt P42224); assay: Inhibition of STAT1 phosphorylation in human SK-HEP1 cells at 30 uM by Western blot analysis; type: cell-based
T1 sequence (whole entry): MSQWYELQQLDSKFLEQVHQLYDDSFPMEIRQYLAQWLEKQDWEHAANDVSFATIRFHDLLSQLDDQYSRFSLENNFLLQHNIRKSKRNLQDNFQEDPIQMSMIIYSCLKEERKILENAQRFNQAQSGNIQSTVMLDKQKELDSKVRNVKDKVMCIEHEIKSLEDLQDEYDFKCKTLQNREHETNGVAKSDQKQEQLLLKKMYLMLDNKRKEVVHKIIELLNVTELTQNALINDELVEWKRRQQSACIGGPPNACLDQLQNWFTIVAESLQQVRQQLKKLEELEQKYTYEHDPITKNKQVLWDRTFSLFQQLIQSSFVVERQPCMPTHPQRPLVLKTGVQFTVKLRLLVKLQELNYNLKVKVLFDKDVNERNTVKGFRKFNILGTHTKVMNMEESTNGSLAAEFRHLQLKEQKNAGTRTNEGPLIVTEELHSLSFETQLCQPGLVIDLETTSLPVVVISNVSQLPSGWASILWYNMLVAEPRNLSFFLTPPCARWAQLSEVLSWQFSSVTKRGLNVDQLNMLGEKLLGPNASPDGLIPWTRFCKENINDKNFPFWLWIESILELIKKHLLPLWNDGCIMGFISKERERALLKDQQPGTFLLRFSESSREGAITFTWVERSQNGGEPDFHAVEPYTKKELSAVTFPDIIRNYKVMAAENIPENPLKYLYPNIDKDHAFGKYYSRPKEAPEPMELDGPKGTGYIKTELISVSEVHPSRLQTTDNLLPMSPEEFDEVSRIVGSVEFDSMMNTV

[21] = test system: Mus musculus; assay: Downregulation of TPX2 expression in mouse liver at 40 mg/kg measured after 30 days by immunohistochemical staining analysis; type: functional, organism-based; conditions: time 30.0 day
[22] = test system: Mus musculus; assay: Downregulation of UBE2S expression in mouse liver at 40 mg/kg measured after 30 days by immunohistochemical staining analysis; type: functional, organism-based; conditions: time 30.0 day
[23] = test system: SK-HEP1; assay: Antiproliferative activity against human SK-HEP1 cells knockdown TRBP at 20 uM measured by crystal violet dye based colony formation assay; type: functional, cell-based
[24] = test system: SK-HEP1; assay: Antiproliferative activity against human SK-HEP1 cells assessed as increase in miR-122-5p level at 20 uM by qRT-PCR analysis; type: functional, cell-based
[25] = test system: SK-HEP1; assay: Antiproliferative activity against human SK-HEP1 cells assessed as increase in miR-452-5p level at 20 uM by qRT-PCR analysis; type: functional, cell-based
[26] = test system: HeLa; assay: Antiproliferative activity against human HeLa cells at 25 uM incubated for 24 hrs by alamar blue assay; type: functional, cell-based
[27] = test system: HCT-116; assay: Antiproliferative activity against human HCT-116 cells at 25 uM incubated for 24 hrs by alamar blue assay; type: functional, cell-based
[28] = test system: SK-HEP1; assay: Effect on Dicer protein expression in human SK-HEP1 cells at 30 uM after 24 hrs by immunoblot analysis; type: functional, cell-based
[29] = test system: SK-HEP1; assay: Effect on AGO2 protein expression in human SK-HEP1 cells at 30 uM after 24 hrs by immunoblot analysis; type: functional, cell-based
[30] = test system: SK-HEP1; assay: Effect on TRBP protein expression in human SK-HEP1 cells at 30 uM after 24 hrs by immunoblot analysis; type: functional, cell-based

COc1cc2c(c(O)c1OC)-c1c(cc3c(c1OC)OCO3)C[C@H](C)[C@H](C)C2
IC50 [1]: 17.2 µM | IC50 [2]: 20.6 µM | IC50 [3]: 27.3 µM | IC50 [4]: 55.4 µM | inhibition [5]: Active | inhibition [6]: Active | inhibition [7]: Active | Activity [8]: inactive | inhibition [9]: Active | inhibition [10]: Active | inhibition [11]: inactive | inhibition [12]: inactive | Activity [13]: Active | Activity [14]: Active | Activity [15]: Toxic | Activity [16]: Active | Activity [17]: Active | Activity [18]: Active | inhibition [19]: Active | inhibition [20]: inactive | Activity [21]: Active | Activity [22]: Active | Activity [23]: inactive | Activity [24]: Active | Activity [25]: inactive | Activity [26]: Active | Activity [27]: inactive | Activity [28]: inactive | Activity [29]: inactive | Activity [30]: inactive
